# pEC50: −log10 of the molar value. Where a name gives a salt, the structure may show the parent alone. Read-outs that look alike come from different tables or passages of the source.
# How the values were obtained:
# [1] = molecular target: T1, recombinant guanylate cyclase reporter cell line (Rattus norvegicus, UniProt P19686+P20595); assay: Effect on a recombinant guanylate cyclase reporter cell line; type: cell-based
# T1 construct: expressed in transfected cells; host or cells: recombinant reporter cell line
# T1 sequence (P20595 1-619): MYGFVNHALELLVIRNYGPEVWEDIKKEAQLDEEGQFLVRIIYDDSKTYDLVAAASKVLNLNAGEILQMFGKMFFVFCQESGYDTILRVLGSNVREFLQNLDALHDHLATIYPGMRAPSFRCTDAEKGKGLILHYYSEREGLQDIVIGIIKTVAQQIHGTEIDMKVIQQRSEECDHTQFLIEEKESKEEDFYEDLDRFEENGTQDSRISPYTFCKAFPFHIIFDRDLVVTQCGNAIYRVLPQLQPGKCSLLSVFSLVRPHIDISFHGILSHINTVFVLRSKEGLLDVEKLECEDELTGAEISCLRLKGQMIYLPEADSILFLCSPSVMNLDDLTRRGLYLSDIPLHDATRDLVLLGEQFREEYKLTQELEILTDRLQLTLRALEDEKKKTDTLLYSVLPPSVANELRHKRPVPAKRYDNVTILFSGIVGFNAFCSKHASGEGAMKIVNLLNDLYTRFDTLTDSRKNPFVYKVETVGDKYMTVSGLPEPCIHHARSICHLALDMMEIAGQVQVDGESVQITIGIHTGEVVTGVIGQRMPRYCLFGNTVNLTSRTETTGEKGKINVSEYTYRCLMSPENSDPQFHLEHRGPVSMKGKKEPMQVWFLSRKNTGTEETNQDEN
# T1 sequence (P19686 1-690): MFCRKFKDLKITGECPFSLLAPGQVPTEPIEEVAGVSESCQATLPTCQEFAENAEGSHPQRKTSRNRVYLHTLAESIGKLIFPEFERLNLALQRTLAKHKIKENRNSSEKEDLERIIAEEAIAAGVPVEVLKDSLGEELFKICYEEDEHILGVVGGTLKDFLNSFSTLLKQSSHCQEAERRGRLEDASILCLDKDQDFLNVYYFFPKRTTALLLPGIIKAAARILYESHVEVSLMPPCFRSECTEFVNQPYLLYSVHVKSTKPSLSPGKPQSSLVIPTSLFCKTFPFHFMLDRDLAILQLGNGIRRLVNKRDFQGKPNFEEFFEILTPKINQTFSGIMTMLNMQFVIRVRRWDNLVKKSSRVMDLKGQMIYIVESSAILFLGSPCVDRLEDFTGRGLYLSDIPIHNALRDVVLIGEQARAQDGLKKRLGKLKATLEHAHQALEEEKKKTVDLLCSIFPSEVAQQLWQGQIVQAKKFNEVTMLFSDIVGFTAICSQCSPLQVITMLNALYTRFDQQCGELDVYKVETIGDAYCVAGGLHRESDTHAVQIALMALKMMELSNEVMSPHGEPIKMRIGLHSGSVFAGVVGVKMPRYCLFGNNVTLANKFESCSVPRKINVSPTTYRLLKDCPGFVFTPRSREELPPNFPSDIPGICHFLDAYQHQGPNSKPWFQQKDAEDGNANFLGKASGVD
# Procedure: The cellular activity of the compounds according to the invention was determined using a recombinant guanylate cyclase reporter cell line, as described in F. Wunder et al., Anal. Biochem. 339, 104-112 (2005).
# [2] = Pharmacokinetic parameters following intravenous and oral administration in rats; type: in vivo, male Wistar rats; conditions: in rats as well as in dogs
# Procedure: The pharmacokinetic parameters of the compounds according to the invention were determined in male Wistar rats and/or in female beagles and/or in cynomolgus monkeys and/or in male CD-1 mice. Intravenous administration in the case of mice and rats was carried out by means of a species-specific plasma/DMSO formulation, and in the case of dogs and monkeys by means of a water/PEG400/ethanol formulation. In all species, oral administration of the dissolved substance was performed via gavage, based on a water/PEG400/ethanol formulation.
# An internal standard (which may also be a chemically unrelated substance) was added to the samples of the compounds of the invention, calibration samples and qualifiers, and there follows protein precipitation by means of acetonitrile in excess. […] The supernatant was analysed by LC-MS/MS using C18 reversed-phase columns and variable mobile phase mixtures. The substances were quantified via the peak heights or areas from extracted ion chromatograms of specific selected ion monitoring experiments.
# The plasma concentration/time plots determined were used to calculate the pharmacokinetic parameters such as AUC,Cmax,t½ (terminal half-life), F (bioavailability), MRT (mean residence time) and CL (clearance), by means of a validated pharmacokinetic calculation program. […]
SMILES,pEC50 [1],MEC (minimum effective concentration) [1] [nM],MEC (minimum effective concentration) ([1]; hydrochloride) [nM],lower plasma clearance (CLplasma) in comparison to example 174 in WO 2012/058132 [2]
"CC(C)CN1CCN(c2ccc(-c3ccc(Cl)cc3N3CCCC(n4ncc(C(=O)O)c4C(F)(F)F)C3)cc2)CC1 (single isomer, unassigned) [Example 1, 1-[1-{4-Chloro-4′-[4-(2-methylpropyl)piperazin-1-yl][1,1′-biphenyl]-2-yl}piperidin-3-yl]-5-(trifluoromethyl)-1H-pyrazole-4-carboxylic acid]",7.40,6.5,–,–
"CC(C)CN1CCN(c2ccc(-c3ccc(Cl)cc3N3CCCC(n4ncc(C(=O)O)c4C(F)(F)F)C3)cc2)CC1 (single isomer, unassigned) [Example 2, 1-[1-{4-chloro-4′-[4-(2-methylpropyl)piperazin-1-yl][1,1′-biphenyl]-2-yl}piperidin-3-yl]-5-(trifluoromethyl)-1H-pyrazole-4-carboxylic acid hydrochloride]",7.96,–,2.2,up to 10 times
